In US20240368664A1, “LIVE YEAST BIOSENSORS AND METHODS OF USE THEREOF” (priority 2021, published 2024):
Read-outs that look alike come from different tables or passages of the source. No end group written: not given here.

Legend:
[1] = system: CaSte2; conditions: CaSte2 (yTC384), no protease; Hill function best-fit ± standard error
[2] = system: CaSte2 with protease CaBar1; conditions: for Hill Slope: CaSte2 + CaBar1 (yBB02), Hill function best-fit ± standard error; for cleavage by CaBar1 protease: judged from CaSte2 activation with/without CaBar1
[3] = system: CaSte2 with protease CaBar1
[4] = Cyclic voltammetry of peptides and copper-peptide complexes; format: physicochemical; conditions: for potential peaks in cyclic voltammogram: 500 μM peptide in 10 mM KCl, scan rates 0.2, 0.1, 0.05 V/s; for redox potential peak of the Cu2+ complex: 1 mM tripeptide, 1 mM CuCl2, 50 mM Tris/HCl (pH 7.4), 0.1 M NaClO4, glassy carbon, 0.3 V/s
[5] = target: T1, Botrytis cinerea cognate pheromone receptor (BcSte2) (Botrytis cinerea); assay: cell-based or functional assay
T1 sequence: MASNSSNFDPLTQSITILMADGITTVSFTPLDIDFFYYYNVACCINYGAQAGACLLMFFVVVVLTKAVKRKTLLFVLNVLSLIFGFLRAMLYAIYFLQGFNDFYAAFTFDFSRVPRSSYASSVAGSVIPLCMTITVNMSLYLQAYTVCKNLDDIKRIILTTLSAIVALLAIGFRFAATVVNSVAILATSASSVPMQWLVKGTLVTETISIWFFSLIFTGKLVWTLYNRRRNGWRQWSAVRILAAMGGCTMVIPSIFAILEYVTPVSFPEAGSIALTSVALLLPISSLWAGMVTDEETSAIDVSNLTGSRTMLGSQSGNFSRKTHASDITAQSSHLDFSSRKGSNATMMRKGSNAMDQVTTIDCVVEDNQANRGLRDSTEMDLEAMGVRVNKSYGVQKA

[6] = target: C. albicans pheromone peptide (CaPep) (Candida albicans); assay: cell-based or functional assay
[7] = target: T2, Candida parapsilosis pheromone GPCR CpSte2 (native) (Candida parapsilosis); assay: cell-based or functional assay
T2 sequence: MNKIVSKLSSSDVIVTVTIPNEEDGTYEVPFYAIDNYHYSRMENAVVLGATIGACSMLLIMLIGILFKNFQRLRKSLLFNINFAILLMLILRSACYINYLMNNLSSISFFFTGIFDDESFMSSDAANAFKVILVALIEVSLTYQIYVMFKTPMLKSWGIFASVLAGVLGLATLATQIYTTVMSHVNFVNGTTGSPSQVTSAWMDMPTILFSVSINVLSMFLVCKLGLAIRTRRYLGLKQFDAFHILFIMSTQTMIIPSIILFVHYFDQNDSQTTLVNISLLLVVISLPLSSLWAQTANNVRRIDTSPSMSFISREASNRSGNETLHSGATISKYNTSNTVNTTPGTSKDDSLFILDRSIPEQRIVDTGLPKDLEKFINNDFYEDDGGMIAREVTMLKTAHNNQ

[8] = system: CaSte2 with protease CaBar1; conditions: read-out: "EC50" of the first response phase; biphasic dose-response, phase treated as separate Hill fit
[9] = Metal-binding peptide absorbance scan; format: physicochemical
[10] = target: T3, Schizosaccharomyces pombe pheromone GPCR SpSte2 (Schizosaccharomyces pombe) (UniProt Q00619); assay: cell-based or functional assay
T3 sequence: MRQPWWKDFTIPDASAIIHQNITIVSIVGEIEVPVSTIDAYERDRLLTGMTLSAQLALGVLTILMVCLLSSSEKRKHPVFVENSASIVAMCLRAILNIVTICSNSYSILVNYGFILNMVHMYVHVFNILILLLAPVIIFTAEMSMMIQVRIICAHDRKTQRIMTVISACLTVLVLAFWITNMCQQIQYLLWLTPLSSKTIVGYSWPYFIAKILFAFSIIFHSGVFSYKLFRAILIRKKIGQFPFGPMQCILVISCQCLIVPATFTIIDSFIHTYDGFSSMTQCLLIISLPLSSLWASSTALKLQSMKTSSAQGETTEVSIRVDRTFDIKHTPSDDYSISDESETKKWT

[11] = system: live yeast biosensor
[12] = target: S. cerevisiae pheromone peptide (ScPep) (Saccharomyces cerevisiae); assay: cell-based or functional assay
[13] = target: S. japonicus pheromone peptide (SjPep) (Schizosaccharomyces japonicus); assay: cell-based or functional assay
[14] = target: SpSte2 with peptide proteases (Schizosaccharomyces pombe, UniProt Q00619); assay: SpSte2 biosensor dose-response with complementary and non-complementary proteases; format: cell-based
[15] = system: SoSte2 with peptide proteases; format: cell-based, Schizosaccharomyces octosporus
[16] = system: A. clavatus GPCR; format: cell-based; conditions: 40 μM peptide
Experimental: (§1) FIGS. 6A-6B show Aspergillus spp peptide cross-reactivity with Aspergillus spp GPCRs. […] The test concentration was set at 40 μM of a given peptide ligand.
(§2) Next, 13 GPCRs of all genome-mined Aspergillus species, including A. fumigatus from Example 1 and S. cerevisiae, along with inducible fluorescent readout were integrated into optimized parent strain. S. cerevisiae was included to test cross-reactivity with S. cerevisiae GPCR and peptide, since this peptide/GPCR pair will be used for building multi-cellular amplification communities. Then, each strain was activated with all Aspergillus peptides and S. cerevisiae peptide (FIG. 6A). Most of the Aspergillus GPCRs were responsive to at least one peptide, except A. terreus, A. flavus/A. oryzae (same GPCR sequence), A. niger and A. nidulans which were not responsive to any tested peptide. […] The majority of peptides have the same sequence (A. fischeri, A. fumigatus, A. lentulus, A. novofumigatus, A. udagawae and A. viridinutans) and the other active peptides differ only in the third amino acid position from N-terminus (A. clavatus, A. flavus and A. oryzae).

[17] = system: Aspergillus spp and S. cerevisiae GPCRs; format: cell-based; conditions: 40 μM peptide
Experimental: as §1, §2

[18] = target: S. octosporus pheromone peptide (SoPep) (Schizosaccharomyces octosporus); assay: cell-based or functional assay

Chain of SpSte2 with peptide proteases (Q00619 whole entry): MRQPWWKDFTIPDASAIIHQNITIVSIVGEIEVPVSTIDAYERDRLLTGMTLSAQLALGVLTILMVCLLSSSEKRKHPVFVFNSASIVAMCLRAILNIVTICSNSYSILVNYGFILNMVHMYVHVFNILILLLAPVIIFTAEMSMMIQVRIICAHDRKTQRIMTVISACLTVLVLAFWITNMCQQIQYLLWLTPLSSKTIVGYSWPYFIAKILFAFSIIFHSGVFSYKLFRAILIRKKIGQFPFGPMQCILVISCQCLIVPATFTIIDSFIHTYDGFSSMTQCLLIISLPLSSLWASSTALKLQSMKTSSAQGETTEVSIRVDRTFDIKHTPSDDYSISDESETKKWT

CC(C)C[C@H](NC(=O)[C@H](CCCNC(=N)N)NC(=O)[C@H](Cc1ccccc1)NC(=O)CN)C(=O)N[C@H](C(=O)N[C@@H](CC(N)=O)C(=O)N[C@@H](Cc1ccccc1)C(=O)NCC(=O)N[C@@H](Cc1ccc(O)cc1)C(=O)N[C@@H](Cc1ccccc1)C(=O)N[C@@H](CCC(=O)O)C(=O)N1CCC[C@H]1C(=O)N[C@@H](C)C(=O)O)[C@@H](C)O [CaPep13A]
Hill Slope [1]: 0.81 ± 0.04 | Hill Slope [2]: 0.94 ± 0.06 | cleavage by CaBar1 protease [2]: cleavable | cleavage by CaBar1 protease ([2]; listed as GFRLTNFGYFEPA): specifically cleaved | EC50 ([3]; +CaBar1 strain, lycopene, 1-h preincubation before adding peptides, 8-h incubation): 1000 nM | effect of CaBar1 on color onset, lycopene readout ([3]; liquid culture, same peptide concentrations, 1-h preincubation, 8-h incubation (FIG. 37)): diminishes color onset

AfPep: natural fungal peptide containing two cysteine residues (WCHLPGQGC; Synthetic: AfPep)
potential peaks in cyclic voltammogram [4]: None of the tested peptides showed any unique and distinguishable potential peaks

BcPep with its first cysteine changed into serine (peptide)
maximal activation compared to the original BcPep [5]: 4 fold

BcPep with its second cysteine changed into serine (peptide)
maximal activation compared to the original BcPep [5]: 4 fold

Candida albicans Bar1 aspartyl protease (CaBar1) (enzyme)
shift of apparent EC50 on the cognate GPCR with the protease co-expressed (order of magnitude) [6]: 1

Candida parapsilosis cognate peptide (CpPep)
EC50, mCherry, yMJ194 [7]: 3 nM | EC50, mCherry, yTC453 [7]: 9 nM | maximal activation, mCherry, yMJ194 [7]: 250 A.U. | maximal activation, mCherry, yTC453 [7]: 3300 A.U.

GARLTNFGYFEPA [CaPep2A13A]
Hill Slope [1]: 1.2 ± 0.1 | Hill Slope [2]: 0.86 ± 0.10 | EC50 ([2]; biosensor with protease CaBar1 under intermediate pRPL18B promoter, 10-h incubation): ~70 nM | cleavage by CaBar1 protease [2]: non-cleavable | EC50 [8]: ~0.3 nM

GWIGRCGVPGSSC [BcomPep, Baudoinia compniacensis mating peptide]
potential peaks in cyclic voltammogram [4]: None of the tested peptides showed any unique and distinguishable potential peaks

His-Ala-His
redox potential peak of the Cu2+ complex [4]: 1.1 V

His-His-Trp
redox potential peak of the Cu2+ complex [4]: 0.8 V | absorbance maxima of copper complexes ([9]; 1 mM copper, 1 mM peptide, 50 mM Tris/HCl, NaClO4 buffer): 620 nm | absorbance peaks of nickel complexes ([9]; nickel complexes): did not show absorbance peaks

S. pombe pheromone peptide (SpPep)
apparent EC50, ymTurquoise2, strain co-expressing SpSxa2 [10]: 100 µM

SDS
concentration that does not impact the vitality and function of the live yeast biosensor [11]: up to 0.01%

Saccharomyces cerevisiae Bar1 aspartyl protease (ScBar1) (from UniProt P12630 25-587) (enzyme)
shift of apparent EC50 on the cognate GPCR with the protease co-expressed (order of magnitude) [12]: 1

Schizosaccharomyces japonicus serine carboxypeptidase Sxa2 (SjSxa2) (enzyme)
shift of apparent EC50 on the cognate GPCR with the protease co-expressed (order of magnitude) [13]: 1

TYADFLRAYQSWNTFVNPDRPNL [SpPep]
EC50 [14]: > 100 µM | cleavage by ScBar1 and CaBar1 ([14]; ScBar1, CaBar1): did not cleave | shift of apparent EC50 by non-complementary proteases ([14]; SjSxa2 and SoSxa2): between half and one order of magnitude | response with complementary protease ([14]; SpSxa2, within measured concentration range): practically completely attenuated the response

TYEDFLRVYKNWWSFQNPDRPDL [SoPep]
cleavage by ScBar1 and CaBar1 [15]: did not cleave | shift of apparent EC50 by non-complementary proteases [15]: between half and one order of magnitude | shift of apparent EC50 towards higher concentration by complementary protease [15]: one and a half orders of magnitude

Tween20
concentration that does not impact the vitality and function of the live yeast biosensor [11]: up to 0.05%

WCALPGQGC [A. oryzae peptide]
response of A. clavatus GPCR [16]: strongest response

WCELPGQGC [A. clavatus peptide]
response of A. clavatus GPCR [16]: strongest response

WCRFAGRIC (SEQ ID NO: 1) or WCRFRGQVC [A. nidulans peptide]
activation of tested GPCRs [17]: did not activate any tested GPCR

WCVLPGQPC [A. niger peptide]
activation of tested GPCRs [17]: did not activate any tested GPCR

B1: Schizosaccharomyces octosporus serine carboxypeptidase Sxa2 (SoSxa2) (enzyme)
chain: MNLAVHVLLLSFLLYTVHSFPAYPPYPIYPRSSLNSSNASSVPIPQPSYNSSSKAMNPDLVTSLPEYSGSLPELYSGYLSAENFKQIFYTFAPAITPTDKFIVWLQGGPGCAGTLGFFSENGPIILDPNHQTPQDNPNSWTRFANMMWIDQPFGTGYSQGSPLASTVSIATSDFIQTLKSFYAKFPEMKEKELYLVGESYGSVWGAYFAQALRSDPELHAIPFGGLGIISGLLSDYETQNTITASMWLDHVNKMGLYYTNESAEVSTFFAAKNQQCGYAEVLERMQFPAEQTPIPKPRVNLTNSFSKKKRQADSDSDSGNIKEAFQMITDCDTYTLTDFLLYLKNHCMITYDITLDCSFNSNNDPLTTYLNRKDVQKQLHAIHVESALTSSKGIFGNGCNYDVYGDIVKNGAPSILEEAIPELVQNYKVSFLAGALDFQLLWTGSLLALQNTTWNGWQGFQEIPDLNSPFGFTLDERNLAFTLSNKVGHMAPSKDPSMVIDWLQKTLLG
shift of apparent EC50 on the cognate GPCR with the protease co-expressed (orders of magnitude) [18]: 1.5
